Experiments:
SGLTs [1] = test: Whole body PET scan of human subjects; format: in vivo; settings: patient with Glucose-Galactose-Malabsorption (missing functional SGLT1), FIG. 6
Description: For a 50-70 kg person, 10 mC of methyl 4-deoxy-4-[^18F]fluoro-D-glucopyranoside dissolved in <1 ml saline is injected intravenously, and the distribution of the tracer is followed dynamically in whole body PET scans for up to 2 hours (up to 8 scans at different time intervals). SGLT activity in organs and tissues is determined from the tracer uptake. The anatomical location of tracer uptake in both normal subjects and cancer patients is determined using CT scans.
FIGS. 4 and 5 are nonlimiting examples of 2-[^18F]-FDG and Methyl 4[^18F]-FDG scans, respectively, of the same human subject.
FIG. 6 is a nonlimiting example of a whole body PET scan of a patient with Glucose-Galactose-Malabsorption (missing functional SGLT1 in their body), after being injected with Me-[18F]-4FDG.

SGLTs [2] = test: MicroPET images of rat's brain after intravenous injection of radiofluorinated glucose derivatives; settings: same animal, images 50-70 min after intravenous injection, FIG. 7
Description: A bolus of a radiolabeled tracer is administered to a non-human primate, rodent, or other non-human mammal, intravenously or orally, and the distribution of tracer transport activity is followed by radiographic means, e.g., PET, microPET and/or SPECT. For PET, an intravenous dose of the tracer contains ˜200 μC/Kg (body weight) methyl 4-[^18F]fluoro-4-deoxy-D-glucopyranoside dissolved in <1 ml saline. […] The identity of each organ and tissue taking up the tracer is confirmed by CT scans.
FIG. 7 presents MicroPET images of a rat's brain after injection of radiofluorinated glucose derivatives. […] These experiments were performed in the same animal at three different occasions. […] The images were acquired using a Concorde 220 microPET camera (Siemens/CTI, Knoxville, Tenn.). The animal was kept under anesthesia with 2% isoflurane in oxygen during all three experiments. Injectable solutions of all radiotracers were prepared in normal saline (0.9% NaCl).

[3] = system: sodium-dependent glucose transporters (SGLTs); test: Micro-PET tests in rodents and PET tests in Vervet monkeys and human volunteers: substrate specificity; format: in vivo; settings: both anomeric forms
Text: A nonlimiting example of a radiolabeled tracer according to the present invention is methyl 4-deoxy-4-[^18F]fluoro-D-glucopyranoside (“Me-4-[^18F]-FDG”), synthesized in either of its two anomeric forms, alpha-methyl 4-[^18F]-FDG and beta-methyl 4-[^18F]-FDG, or as a racemic mixture. […] For example, Me-4-[^18F]-FDG is not a substrate for GLUT1 in the blood brain barrier. It is a novel, high affinity tracer for SGLTs in those cells expressing SGLTs.

SGLT1 = molecular target: T1, SGLT1 (Homo sapiens, UniProt P13866); test: Affinity for SGLT1; format: biochemical
T1 sequence (P13866 1-664): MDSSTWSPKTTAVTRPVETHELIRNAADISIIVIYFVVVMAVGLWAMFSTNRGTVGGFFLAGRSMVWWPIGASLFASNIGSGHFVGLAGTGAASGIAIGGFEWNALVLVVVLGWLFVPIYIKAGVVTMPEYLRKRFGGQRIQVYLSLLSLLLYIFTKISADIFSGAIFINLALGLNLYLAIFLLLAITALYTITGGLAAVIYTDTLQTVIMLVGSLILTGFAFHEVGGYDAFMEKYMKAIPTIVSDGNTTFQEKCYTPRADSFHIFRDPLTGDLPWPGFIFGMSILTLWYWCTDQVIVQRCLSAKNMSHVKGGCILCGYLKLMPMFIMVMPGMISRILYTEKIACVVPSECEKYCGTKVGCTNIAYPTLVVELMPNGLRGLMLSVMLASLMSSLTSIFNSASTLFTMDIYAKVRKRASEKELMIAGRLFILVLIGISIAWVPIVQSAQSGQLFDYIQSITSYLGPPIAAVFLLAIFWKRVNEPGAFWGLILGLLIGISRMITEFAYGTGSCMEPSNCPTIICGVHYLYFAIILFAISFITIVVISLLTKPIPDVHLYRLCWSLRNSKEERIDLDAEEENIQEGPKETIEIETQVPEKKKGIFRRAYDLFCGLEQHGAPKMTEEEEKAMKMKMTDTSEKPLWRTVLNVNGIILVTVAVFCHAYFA
Text: A [^11C]-methyl-D-glucoside has been synthesized and biologically evaluated as a tracer of sodium dependent glucose transporters. […] A commentary on this paper was published in the same issue of the journal. […] In addition, three ^18F-fluoro-n-alkyl glucosides have been synthesized and evaluated as potential substrates for sodium/glucose cotransporters. […] There are limitations with these probes in that the lifetime of [^11C] is shorter than that of [^18F]
Optionally, additional information can be obtained by also administering one or more pharmacological or other agents to the animal, and monitoring the effect of the agent(s) on tracer uptake and distribution. Nonlimiting examples of suitable agents, include sodium ion, glucose, galactose, and phlorizin. […] Any therapeutic agent can also be used to evaluate its potential role and in vivo activity on SGLTs in various organs, using in vivo competitive kinetics with the radiolabeled tracer.

SGLTs [4] = test: Whole body PET scan of Vervet monkey; format: in vivo; settings: FIG. 3
Text: Scans can be conducted both with and without administering one or more pharmacological agents, e.g., sodium, phlorizin, glucose, galactose, etc.
FIG. 3 is a nonlimiting example of a methyl 4-[^18F]-FDG whole body PET scan of a Vervet monkey.

Q: What does the source list for `COC1O[C@H](CO)[C@@H]([18F])[C@H](O)[C@H]1O` (stereo partly drawn) [Me-4-[^18F]-FDG, methyl 4-deoxy-4-[^18F]fluoro-D-glucopyranoside]?
A: excretion into the urinary bladder, whole body PET (SGLTs [1]): excretion of the tracer into the urinary bladder; brain uptake / crossing of the blood-brain barrier, microPET (SGLTs [2]): lack of brain uptake; substrate for SGLTs / GLUTs [3]: substrate for sodium-dependent glucose transporters (SGLTs), but not a substrate for GLUTs; affinity for SGLT1 (SGLT1): 50 µM; tracer distribution, whole body PET (SGLTs [4]): accumulated in the liver, heart, and kidneys, but not in the brain and little in the urinary bladder

— patent US8845999B2 (The Regents of the University of California, priority 2005, dated 2014)
